Several values for one entry are separate records, joined by “and”; a condition that tells them apart may be missing. Equal entries are not always repeated.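 96-well plates; 48 h exposure; 5 concentrations. Endpoints by linear interpolation between flanking doses. Not reached: highest tested concentration assigned. Abbreviation: GI50, concentration required for 50% inhibition of growth. The concentration for full growth arrest is given as TGI.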

Test systems include SK-OV-3 ovarian; SR leukemia; MALME-3M melanoma; HT29 colon; 786-0 renal; TK-10 renal; SN12C renal; SNB-19 CNS; HS 578T breast; T-47D breast.
Assay in all cases: NCI anticancer screen, dose series, 48 h

For `CCCCCCCCC/C=C1\CCC(CN(C)C)C1=O` (stereo not drawn), the TGI in the experiment on SK-OV-3 ovarian stood at 32 µM; in the experiment on SR leukemia, 6.77 µM; in the experiment on MALME-3M melanoma, 12.6 µM; in the experiment on HT29 colon it was 3.16 µM; with 786-0 renal, 0.963 µM; in the experiment with TK-10 renal, 4.53 µM. The TGI with SN12C renal worked out at 4.34 µM; with SNB-19 CNS, 18.1 µM.
With `O=[N+]([O-])c1ccc(N=Nc2ccc(O)c3ccccc23)cc1`, the GI50 is 11.9 µM in the experiment on SK-OV-3 ovarian; 2.99 µM in the experiment on SR leukemia; 12 µM in the experiment on MALME-3M melanoma; 13.7 µM in the experiment on HT29 colon; 8.59 µM in the experiment with 786-0 renal; 2.42 µM in the experiment on HS 578T breast. The GI50 with TK-10 renal was 2.81 µM; with SN12C renal, 3.55 µM; in the experiment on SNB-19 CNS, 4.76 µM. In addition, the TGI in the experiment with SK-OV-3 ovarian was 47.7 µM; in the experiment on SR leukemia, 23.4 µM; in the experiment with MALME-3M melanoma, 32.7 µM; with HT29 colon, more than 100 µM; in the experiment with 786-0 renal, more than 100 µM; in the experiment with HS 578T breast, 29.9 µM. For the same compound, the TGI in the experiment with TK-10 renal, with SN12C renal and with SNB-19 CNS was more than 100 µM throughout.
With `CN(C)C(=O)c1ccc([N+](=O)[O-])cc1`, the TGI in the experiment on SK-OV-3 ovarian, in the experiment with SR leukemia, in the experiment on MALME-3M melanoma, with HT29 colon, in the experiment with 786-0 renal and in the experiment on TK-10 renal was more than 100 µM in each case. For the same compound, the TGI in the experiment with SN12C renal and with SNB-19 CNS was more than 100 µM each time.
With `COc1cccc(NC(=O)CC(=O)N2N=C(N3c4ccccc4Sc4ccccc43)CC2c2ccccc2)c1` (stereo not drawn), the TGI in the experiment with SK-OV-3 ovarian, in the experiment on SR leukemia, in the experiment with MALME-3M melanoma, in the experiment with HT29 colon, in the experiment on 786-0 renal and in the experiment on TK-10 renal was more than 100 µM each time. The TGI in the experiment with SN12C renal and in the experiment with SNB-19 CNS was more than 100 µM in each case.
As to `COc1cc(C2c3cc4c(cc3[C@@H](NCCN3CCOCC3)C3COC(=O)[C@H]23)OCO4)cc(OC)c1O` (stereo partly drawn), the GI50 was 1.49 µM and 3.36 µM with SK-OV-3 ovarian; 0.0227 µM and 0.0625 µM with SR leukemia; 0.764 µM and 2.13 µM in the experiment on SN12C renal. The TGI was 5.89 µM and 11.3 µM with SK-OV-3 ovarian; 11.1 µM and 1.3 µM in the experiment on SR leukemia; 11.2 µM and 14.2 µM in the experiment with MALME-3M melanoma; 18.1 µM and > 17.5 µM in the experiment with HT29 colon; 5.11 µM and 7.93 µM with 786-0 renal; 21.7 µM and > 17.5 µM in the experiment on TK-10 renal. Moreover, the TGI was 4.06 µM and 7.9 µM with SN12C renal; more than 75 µM in the experiment on SNB-19 CNS.
As to `N#CNC(=NCCc1c[nH]c2ccccc12)Oc1ccccc1`, the TGI in the experiment on SK-OV-3 ovarian, in the experiment with SR leukemia, in the experiment with HT29 colon, with 786-0 renal, with TK-10 renal and in the experiment on SN12C renal was more than 100 µM throughout. The TGI in the experiment on SNB-19 CNS is more than 100 µM.
Consider `COc1ccc(CC(=O)c2ccc(O)cc2O)cc1`, for which the GI50 with SK-OV-3 ovarian is more than 100 µM; in the experiment on T-47D breast, 56.7 µM; in the experiment with SR leukemia, more than 100 µM; in the experiment with MALME-3M melanoma, 45.2 µM; in the experiment on HT29 colon, more than 100 µM; in the experiment with 786-0 renal it was more than 100 µM. Also, the GI50 in the experiment with HS 578T breast is more than 100 µM; in the experiment on SN12C renal, 93.2 µM; with SNB-19 CNS it was more than 100 µM. The TGI in the experiment on SK-OV-3 ovarian, with T-47D breast, in the experiment with SR leukemia, in the experiment with MALME-3M melanoma, with HT29 colon and in the experiment on 786-0 renal was more than 100 µM in each case. The TGI with HS 578T breast, in the experiment with SN12C renal and in the experiment on SNB-19 CNS was more than 100 µM in each case.
Regarding `COC(=O)C(CC1=C(O)Nc2ccccc2N1)/C(=N/NC(N)=O)C(=O)Nc1ccccc1C` (stereo not drawn), the TGI was more than 100 µM with SK-OV-3 ovarian; 48.5 µM in the experiment with SR leukemia; more than 100 µM with MALME-3M melanoma; more than 100 µM with HT29 colon; more than 100 µM in the experiment with 786-0 renal; more than 100 µM in the experiment on TK-10 renal. Also, the TGI in the experiment on SN12C renal and with SNB-19 CNS was more than 100 µM throughout.
`O=C1/C(=N\O)S(=O)(=O)c2ccccc21`: the TGI in the experiment with SK-OV-3 ovarian, in the experiment with SR leukemia, in the experiment with MALME-3M melanoma, in the experiment with HT29 colon, in the experiment on 786-0 renal and in the experiment on TK-10 renal was more than 100 µM in each case. Further, the TGI with SN12C renal and in the experiment with SNB-19 CNS was more than 100 µM throughout.
On to `COC1=C(C)C(=O)c2c(cc3c(c2O)C(C)(CCC=C(C)C)C(C)O3)C1=O` (stereo not drawn), for which the TGI in the experiment with SK-OV-3 ovarian, with SR leukemia, in the experiment with MALME-3M melanoma, in the experiment on HT29 colon, in the experiment with 786-0 renal and in the experiment with TK-10 renal was more than 100 µM throughout. Also, the values for the TGI in the experiment with SN12C renal and with SNB-19 CNS were more than 61.8 µM and 34.5 µM, respectively.
With `CN(C)C(=O)c1cnc2oc3ccc(O)cc3c2c1-c1ccccc1`, the GI50 is 24.6 µM in the experiment with SK-OV-3 ovarian, 3.78 µM in the experiment on SR leukemia, more than 25 µM in the experiment on 786-0 renal and more than 25 µM in the experiment with TK-10 renal. The TGI in the experiment on SK-OV-3 ovarian, in the experiment with SR leukemia, in the experiment with 786-0 renal and in the experiment with TK-10 renal was more than 25 µM throughout.
Turning to `Cc1nn(-c2ccc(Cl)cc2)c2nc3c(nc12)C(=O)C(=O)c1ccccc1-3`, the GI50 in the experiment on SK-OV-3 ovarian was more than 100 µM; in the experiment on T-47D breast it was 12.1 µM; in the experiment on SR leukemia it was 7.28 µM; in the experiment on MALME-3M melanoma it was 1.43 µM; in the experiment on HT29 colon, 2.01 µM; with 786-0 renal it was 5.39 µM. The GI50 with HS 578T breast was 2.08 µM; in the experiment with SN12C renal, 2.7 µM; with SNB-19 CNS it was 2.48 µM. Besides, the TGI in the experiment on SK-OV-3 ovarian is more than 100 µM; with T-47D breast, 29.9 µM; in the experiment on SR leukemia it was more than 100 µM; with MALME-3M melanoma, 3.86 µM; with HT29 colon, 3.99 µM; with 786-0 renal, 25.9 µM. In addition, the results for the TGI with HS 578T breast, in the experiment on SN12C renal and with SNB-19 CNS were 5.5 µM, 12.6 µM and 8.17 µM, respectively.

The values are drawn from PubChem BioAssay (NCI).
